Laboratory results taken from patent publication US20240150848A1, “METHODS AND SYSTEMS FOR DIAGNOSIS, CLASSIFICATION, AND TREATMENT OF SMALL CELL LUNG CANCER AND OTHER HIGH-GRADE NEUROENDOCRINE CARCINOMAS” (BOARD OF REGENTS, THE UNIVERSITY OF TEXAS SYSTEM, priority 2021, published 2024).

Tested on: SCLC-A and SCLC-N cell lines
Assay: Comparison of IC50 values between cell lines assigned to SCLC-A and SCLC-N by the methylation classifier (SCLC-DMC)
Format: cell-based
Source text: FIGS. 22A-22D show comparison of IC50 values for the BCL2i ABT-737 (FIG. 22A) and the AURKi CYC-116 (FIG. 22B) between cell lines assigned to SCLC-A and SCLC-N using SCLC-DMC. Clinical outcome depending on classification method used. Overall survival of ES-SCLC patients stratified by classification using the RNAseq signature or SCLC-DMC for SCLC-A (FIG. 22C) and SCLC-N(FIG. 22D). The box plot is highlighting the median as well as the 25th and 75th percentile in the box extended by 1.5× the IQR with bars. […] To validate that these same vulnerabilities are preserved using the methylation classifier (FIG. 30), the inventors compared IC50 values for over 400 drugs^24 between methylation-assigned SCLC-A and SCLC-N subtypes and identified numerous distinct vulnerabilities between the groups.

SMILES | sensitivity by comparison of IC50 values (methylation-assigned SCLC-A cell lines compared with SCLC-N cell lines (FIG. 22A)) | sensitivity by comparison of IC50 values (methylation-assigned SCLC-N cell lines compared with SCLC-A cell lines (FIG. 22B))
CN(C)CC[C@H](CSc1ccccc1)Nc1ccc(S(=O)(=O)NC(=O)c2ccc(N3CCN(Cc4ccccc4-c4ccc(Cl)cc4)CC3)cc2)cc1[N+](=O)[O-] [ABT-737] | more sensitive | 
Cc1nc(N)sc1-c1ccnc(Nc2ccc(N3CCOCC3)cc2)n1 [CYC-116] |  | more sensitive
